Experimental data taken from paper PMC6032016, “Synthesis, biological evaluation, and molecular modelling studies of potent human neutrophil elastase (HNE) inhibitors” (Journal of Enzyme Inhibition and Medicinal Chemistry, 2018).
Values joined by “and” are separate entries in the source; they are usually repeats but may differ in a detail not shown here. Identical values can stand only once.

Legend:
[1] = target: T1, HNE (human neutrophil elastase) (Homo sapiens, UniProt P08246); assay: HNE inhibition assay (fluorogenic substrate cleavage); type: biochemical; details: for HNE inhibitory activity, result in words: highest concentration tested 50 µM; for IC50: mean ± SD of three independent experiments, NA: no inhibitory activity at the highest concentration tested (50 µM)
T1 construct: purchased Calbiochem
T1 sequence (P08246 30-267): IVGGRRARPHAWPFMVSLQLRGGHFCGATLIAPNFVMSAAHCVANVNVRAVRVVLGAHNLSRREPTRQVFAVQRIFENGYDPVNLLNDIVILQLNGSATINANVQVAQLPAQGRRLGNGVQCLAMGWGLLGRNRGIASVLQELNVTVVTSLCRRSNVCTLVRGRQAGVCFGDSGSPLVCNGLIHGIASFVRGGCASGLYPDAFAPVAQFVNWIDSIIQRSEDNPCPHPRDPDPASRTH
Method: Compounds were dissolved in 100% DMSO at 5 mM stock concentrations. […] The HNE inhibition assay was performed in black flat-bottom 96-well microtiter plates. Briefly, a buffer solution containing 200 mM Tris–HCl, pH 7.5, 0.01% bovine serum albumin, and 0.05% Tween-20 and 20 mU/mL of HNE (Calbiochem) was added to wells containing different concentrations of each compound. The reaction was initiated by addition of 25 µM elastase substrate (N-methylsuccinyl-Ala-Ala-Pro-Val-7-amino-4-methylcoumarin, Calbiochem) in a final reaction volume of 100 µl/well. Kinetic measurements were obtained every 30 s for 10 min at 25 °C using a Fluoroskan Ascent FL fluorescence microplate reader (Thermo Electron, MA) with excitation and emission wavelengths set at 355 and 460 nm, respectively. For all compounds tested, the concentration of inhibitor that caused 50% inhibition of the enzymatic reaction (IC50) was calculated by plotting % inhibition versus logarithm of inhibitor concentration (at least six points). The data are presented as the mean values of at least three independent experiments with relative standard deviations of <15%.

[2] = Analysis of compound stability: spontaneous hydrolysis in aqueous buffer; type: physicochemical; details: 25 °C, 0.05 M phosphate buffer, pH 7.3; read-out: t1/2 for spontaneous hydrolysis (converted)
Method: Spontaneous hydrolysis of selected derivatives was evaluated at 25 °C in 0.05 M phosphate buffer, pH 7.3. Kinetics of hydrolysis were monitored by measuring changes in the absorbance spectra over time using a SpectraMax Plus microplate spectrophotometer (Molecular Devices, Sunnyvale, CA). Absorbance (At) at the characteristic absorption maxima of each compound was measured at the indicated times until no further absorbance decreases occurred (A∞)[52]. Using these measurements, we created semilogarithmic plots of log(At–A∞) versus time, and k′ values were determined from the slopes of these plots. Half-conversion times were calculated using t1/2 = 0.693/k′, as described previously[36]^,[37].

[3] = target: T2, HNE (Homo sapiens, UniProt P08246); assay: Reversibility of HNE inhibition over extended periods of time; type: biochemical; details: 8 µM compound
T2 construct: purchased Calbiochem
T2 sequence (P08246 30-267): T1 sequence (P08246 30-267)
Method: The inhibition was maximal for up to 60 min with compound 7e and >120 min for the other tested compounds (4a, 4b, and 7a). However, inhibition by the compounds was eventually reversed, and full recovery of HNE activity was observed by 4 h after treatment with 8 µM of the compound (e.g. see Figure 6).
Figure 6. […] HNE was incubated with the indicated compounds (8 µM), and kinetic curves monitoring substrate cleavage catalysed by HNE over time are shown. Representative curves are from two independent experiments.

[4] = target: T2, HNE; assay: Kinetics of HNE inhibition (double-reciprocal Lineweaver–Burk plots); type: biochemical; details: Lineweaver–Burk plot of fluorogenic substrate hydrolysis
Excerpt: To better understand the mechanism of action of these isoxazolone HNE inhibitors, we performed kinetic experiments.
Figure 7. Kinetics of HNE inhibition by compounds 7d and 8d. Representative double reciprocal Lineweaver–Burk plots are shown from three independent experiments.

| SMILES | IC50 [1] | melting point | also measured |
| --- | --- | --- | --- |
| CCCCC(=O)n1oc(=O)c2ccccc21 [Compound 10b, 1-Pentanoylbenzo[c]isoxazol-3(1H)-one] | – | – | HNE inhibitory activity, result in words [1]: inactive |
| Cc1cccc(C(=O)n2oc(=O)c(-c3ccc([N+](=O)[O-])cc3)c2C)c1 [Compound 7c, 3-Methyl-2-(3-methylbenzoyl)-4-(4-nitrophenyl)isoxazol-5(2H)-one] | 210 ± 40 nM | 152 to 154 °C | – |
| Cc1cccc(C(=O)n2oc(=O)c(-c3ccc(C#N)cc3)c2C)c1 [Compound 7b, 4-(3-Methyl-2-(3-methylbenzoyl)-5-oxo-2,5-dihydroisoxazol-4-yl)benzonitrile] | 70 ± 20 nM | 108 to 110 °C | time after which HNE inhibition was reversed [3]: ~30 min |
| Cc1cccc(Cn2oc(=O)c(-c3ccccc3)c2C)c1 [Compound 2, 3-Methyl-2-(3-methylbenzyl)-4-phenylisoxazol-5(2H)-one] | – | – | HNE inhibitory activity, result in words [1]: completely inactive |
| Cc1cccc(C(=O)n2oc(=O)c(-c3ccc(NC(=O)C4CC4)cc3)c2C)c1 [Compound 7e, N-(4-(3-methyl-2-(3-methylbenzoyl)-5-oxo-2,5-dihydroisoxazol-4-yl)phenyl)ciclopropanecarboxamide] | 50 ± 20 nM | 120 to 123 °C | half-life [2]: 9.6 h; time for which HNE inhibition was maximal [3]: up to 60 min |
| CC(=O)Nc1ccc(-c2cc(=O)on2C(=O)c2cccc(C)c2)cc1 [Compound 4u, N-(4-(2-(3-methylbenzoyl)-5-oxo-2,5-dihydroisoxazol-3-yl)phenyl)acetamide] | 28600 ± 3300 nM | – | – |
| Cc1c(-c2ccccc2)c(=O)on1S(=O)(=O)c1ccc(NC(=O)C(C)(C)C)cc1 [Compound 3c, N-(4-((3-methyl-5-oxo-4-phenylisoxazol-2(5H)-yl)sulfonyl)phenyl)pivalamide] | – | – | HNE inhibitory activity, result in words [1]: completely inactive |
| Cc1ccc(-c2c(C)n(C(=O)c3cccc(C)c3)oc2=O)cc1 [Compound 7a, 3-Methyl-2-(3-methylbenzoyl)-4-(p-tolyl)isoxazol-5(2H)-one] | 20 ± 9 nM | – | half-life [2]: 7.7 h; time for which HNE inhibition was maximal [3]: > 120 min |
| Cc1cccc(C(=O)Oc2onc(C)c2-c2ccc(C#N)cc2)c1 [Compound 8b, 4-(4-Cyanophenyl)-3-methylisoxazol-5-yl 3-methylbenzoate] | 420 ± 130 nM | 98 to 100 °C | – |
| Cc1cccc(C(=O)n2oc(=O)cc2-c2ccc([N+](=O)[O-])cc2)c1 [Compound 4s, 2-(3-Methylbenzoyl)-3-(4-nitrophenyl)isoxazol-5(2H)-one] | – | 177 to 180 °C (dec.) | HNE inhibitory activity, result in words [1]: completely inactive |
| Cc1ccc(-c2c(C)noc2OC(=O)c2cccc(C)c2)cc1 [Compound 8a, 3-Methyl-4-(p-tolyl)isoxazol-5-yl 3-methylbenzoate] | 10000 nM and 10200 nM | – | half-life [2]: 5.3 h |
| Cc1cccc(C(=O)Oc2onc(C)c2-c2ccc(NC(=O)C3CC3)cc2)c1 [Compound 8e, 4-(4-(Ciclopropanecarboxamido)phenyl)-3-methylisoxazol-5-yl3-me-thylbenzoate] | 620 ± 210 nM | 80 to 82 °C | half-life [2]: 5.6 h |
| CC(=O)Nc1ccc(-c2c(C)noc2OC(=O)c2cccc(C)c2)cc1 [Compound 8d, 4-(4-Acetamidophenyl)-3-methylisoxazol-5-yl3-methylbenzoate] | 540 ± 110 nM | 57 to 60 °C | half-life [2]: 2.9 h; mechanism of HNE inhibition [4]: competitive |
| Cc1c(-c2ccccc2)c(=O)on1S(=O)(=O)c1ccc(OC(=O)C(C)(C)C)cc1 [Compound 3b, 4-((3-Methyl-5-oxo-4-phenylisoxazol-2(5H)-yl)sulfonyl)phenyl pivalate] | 59 ± 20 nM | – | – |
| Cc1c(-c2ccccc2)c(=O)on1S(=O)(=O)c1ccc(O)cc1 [Compound 3a, 2-((4-Hydroxyphenyl)sulfonyl)-3-methyl-4-phenylisoxazol-5(2H)-one] | – | 50 to 51 °C | HNE inhibitory activity, result in words [1]: inactivity |
| O=C(C1CC1)n1oc(=O)cc1-c1ccc([N+](=O)[O-])cc1 [Compound 4t, 2-(Cyclopropanecarbonyl)-3-(4-nitrophenyl)isoxazol-5(2H)-one] | – | – | HNE inhibitory activity, result in words [1]: completely inactive |

Now from value to molecule, other results behind:

| IC50 [1] | melting point | SMILES | also measured |
| --- | --- | --- | --- |
| 59 ± 18 nM | 83 to 86 °C | Cc1c(-c2ccccc2)c(=O)on1C(=O)C1CC1 [Compound 4b, 2-(Cyclopropanecarbonyl)-3-methyl-4-phenylisoxazol-5(2H)-one] | half-life [2]: 8.3 h; time for which HNE inhibition was maximal [3]: > 120 min |
| 350 ± 36 nM | 99 to 100 °C | Cc1ccccc1C(=O)n1oc(=O)c(-c2ccccc2)c1C [Compound 4d, 3-Methyl-2-(2-methylbenzoyl)-4-phenylisoxazol-5(2H)-one] | – |
| 6300 ± 1400 nM | 118 to 119 °C | Cc1c(-c2ccccc2)c(=O)on1C(=O)c1cccc(C#N)c1 [Compound 4g, 3-(3-Methyl-5-oxo-4-phenyl-2,5-dihydroisoxazole-2-carbonyl)benzonitrile] | – |
| 10100 ± 1300 nM | 160 to 163 °C | Cc1cccc(C(=O)n2oc(=O)c(-c3ccccc3)c2-c2ccccc2)c1 [Compound 4m, 2-(3-Methylbenzoyl)-3,4-diphenylisoxazol-5(2H)-one] | – |
| 25100 ± 3600 nM | – | CCC(=O)n1oc(=O)c2ccccc21 [Compound 10a, 1-Propionylbenzo[c]isoxazol-3(1H)-one] | – |
| 77 ± 27 nM | 85 to 88 °C | Cc1cccc(C(=O)n2oc(=O)c(-c3ccccc3)c2C)c1 [Compound 4a, 3-Methyl-2-(3-methylbenzoyl)-4-phenylisoxazol-5(2H)-one] | half-life [2]: 4.1 h; time for which HNE inhibition was maximal [3]: > 120 min |
| 17200 ± 2300 nM | 100 to 103 °C | O=C(C1CC1)n1oc(=O)c(-c2ccccc2)c1-c1ccccc1 [Compound 4n, 2-(Cyclopropanecarbonyl)-3,4-diphenylisoxazol-5(2H)-one] | – |
| 13600 ± 2400 nM | – | Cc1cccc(C(=O)n2oc(=O)c(C)c2-c2ccccc2)c1 [Compound 4o, 4-Methyl-2-(3-methylbenzoyl)-3-phenylisoxazol-5(2H)-one] | – |
| 48700 ± 3300 nM | – | Cc1cccc(C(=O)n2oc(=O)cc2-c2ccccc2)c1 [Compound 4q, 2-(3-Methylbenzoyl)-3-phenylisoxazol-5(2H)-one] | – |
| 8500 ± 2100 nM | 132 to 134 °C | Cc1c(-c2ccccc2)c(=O)on1C(=O)c1ccc(NC(=O)C(C)(C)C)cc1 [Compound 4i, N-(4-(3-methyl-5-oxo-4-phenyl-2,5-dihydroisoxazole-2-carbonyl)phenyl)pivalamide] | – |
| 230 ± 34 nM | 134 to 136 °C | Cc1ccc(C(=O)n2oc(=O)c(-c3ccccc3)c2C)cc1 [Compound 4c, 3-Methyl-2-(4-methylbenzoyl)-4-phenylisoxazol-5(2H)-one] | – |
| 11400 ± 1900 nM | 178 to 180 °C (dec.) | Cc1c(-c2ccccc2)c(=O)on1C(=O)c1ccc(C#N)cc1 [Compound 4h, 4-(3-Methyl-5-oxo-4-phenyl-2,5-dihydroisoxazole-2-carbonyl)benzonitrile] | – |
| 12700 ± 2700 nM | – | O=C(C1CC1)n1oc(=O)cc1-c1ccccc1 [Compound 4r, 2-(Cyclopropanecarbonyl)-3-phenylisoxazol-5(2H)-one] | – |
| 638 ± 121 nM | 116 to 119 °C | Cc1cccc(C(=O)n2oc(=O)c3ccccc32)c1 [Compound 10c, 1-(3-Methylbenzoyl)benzo[c]isoxazol-3(1H)-one] | – |
| 29600 ± 7200 nM | 185 to 186 °C | Cc1c(-c2ccccc2)c(=O)on1C(=O)c1cccc(S(C)(=O)=O)c1 [Compound 4f, 3-Methyl-2-(3-(methylsulfonyl)benzoyl)-4-phenylisoxazol-5(2H)-one] | – |
| 200 ± 27 nM | 96 to 97 °C | Cc1c(-c2ccccc2)c(=O)on1C(=O)c1cccc(C(F)(F)F)c1 [Compound 4e, 3-Methyl-4-phenyl-2-(3-(trifluoromethyl)benzoyl)isoxazol-5(2H)-one] | – |
| 480 ± 130 nM | 130 to 132 °C | Cc1c(-c2ccccc2)c(=O)on1C(=O)c1ccc(OC(=O)C(C)(C)C)cc1 [Compound 4l, 4-(3-Methyl-5-oxo-4-phenyl-2,5-dihydroisoxazole-2-carbonyl)phenyl pivalate] | – |
| 1100 ± 140 nM | – | Cc1c(-c2ccccc2)n(C(=O)C2CC2)oc1=O [Compound 4p, 2-(Cyclopropanecarbonyl)-4-methyl-3-phenylisoxazol-5(2H)-one] | – |
